# Reference: US20260232692A1, “Methods Of Treating Cancer Using BCL-2 Inhibitors With Iron And Heme Supplementation Therapies” (Emory University, priority 2023, published 2026)
# “Also recorded” adds a separate entry of the source.
# Tests used:
# VS t(11; 14) cell lines = assay: Rescue of FAC mediated cell death in VS t(11;14) cell lines; type: cell-based; settings: in the presence and absence of venetoclax
# Experimental: Intracellular iron overload, ROS mediated lipid peroxidation, and loss of GSH/GPX4 mediated antioxidant defenses are all features of ferroptosis. Experiments were performed to determine whether FAC supplementation in VS t(11; 14) MM promotes cell death via ferroptosis. VS t(11; 14) cell lines were treated with a ferrostatin (Fn-1), a synthetic antioxidant that acts via a reductive mechanism to prevent damage to membrane lipids and thereby, inhibits cell death. Inhibiting ferroptosis was able to fully rescue the cell death induced by FAC both in the presence and absence of venetoclax (FIG. 8B). Boc-D-FMK is a caspase inhibitor that inhibits apoptosis.
# t(11; 14) patient sample = settings: FAC 250 μM and 500 μM, venetoclax 0.001, 0.005 and 0.01 μM, FIG. 7C
# [1] = test system: reactive oxygen species (ROS) in VS t(11; 14) MM; settings: FAC treated VS t(11;14) MM
# Description: (§1) Free or excess intracellular iron is a potent inducer of reactive oxygen species (ROS) and oxidative stress.
# [2] = test system: iron homeostasis-related protein in VS t(11; 14) cell lines
# Experimental: FIG. 8B show data on the expression of iron homeostasis-related protein in whole cell lysates supplemented with 500 μM FAC for 72 h in indicated cell lines by immunoblotting using actin as a loading control. Indicated cell lines were treated with a ferroptotic inhibitor, ferrostatin (Fn-1).
# as §1
# [3] = test system: VS t(11; 14) MM cell lines; assay: Growth/viability of VS t(11;14) MM cell lines under iron chelation or supplementation (CellTiter-Glo 3D); type: cell-based; settings: iron chelation with DFO or supplementation with FAC (500 μM FAC up to 96 h, FIG. 7A)
# Experimental: Cells were treated with 500 μM FAC up to 96 h and assessed for viability using CellTiter-Glo® 3D Cell Viability Assay.
# Iron is a cofactor for the maintenance of ETC activity. The impact of modulating iron levels either by chelation with deferoxamine (DFO) or supplementation with ferric ammonium citrate (FAC) was assessed in a panel of VS t(11; 14) and VR non t(11; 14) MM cell lines.
# [4] = test system: venetoclax sensitive (VS) multiple myeloma (MM) cell lines; assay: Hemin/5-ALA supplementation and Ven sensitivity in VS MM cell lines, Annexin V/DAPI flow cytometry; type: cell-based; settings: 50 μM Hemin/5-ALA pre-treatment 24 hours, then Ven 24 hrs
# Experimental: Cell death/viability was assessed by Annexin V/DAPI flow cytometric staining.
# To test the necessity for reduced heme synthesis for Ven sensitivity in t(11; 14) MM, Ven treated cells were supplemented with either the heme synthesis precursor 5-ALA or hemin (oxidized heme and active ingredient of clinically approved Panhematin™).
# MEK-ERK-mTORC1 signaling = MEK-ERK-mTORC1 signaling in whole cell lysates of VS MM treated with hemin; type: cell-based; settings: 50 μM hemin and/or 0.05 μM Ven for 18 h
# Experimental: Whole cell lysates of indicated lines were treated with 50 μM hemin and/or 0.05 μM Ven for 18 h. Indicated VS cells were treated with 50 µM hemin and 0.05 μM Ven and RAF, MEK, or ERK-inhibitors. Cell death/viability was evaluated by Annexin V/DAPI flow cytometric staining.
# [5] = test system: venetoclax sensitive acute myeloid leukemia (AML) cell lines; assay: Hemin supplementation and venetoclax sensitivity in AML cell lines; type: cell-based
compound,measurement,setting,value
CCOC(=O)c1ccc(NC2CCCCC2)c(N)c1 [ferrostatin],rescue of cell death induced by FAC,VS t(11; 14) cell lines,sufficient to mitigate; also recorded: fully rescue
COC(=O)CC(NC(=O)OC(C)(C)C)C(=O)CF [Boc-D-FMK],rescue of cell death induced by FAC,VS t(11; 14) cell lines,not able to rescue
ferric ammonium citrate [FAC],sensitivity to venetoclax with iron supplementation,t(11; 14) patient sample,A similar response
same,cytosolic ROS levels,[1],not in cytosolic ROS levels
same,mitochondrial ROS,[1]; 48 h,significant elevation
same,cystine-glutamate antiporter SLC7A11 expression,[2]; FAC treatment,not altered
same,iron importer TFR1 expression,[2]; FAC treatment,reduction
same,iron storage protein ferritin expression,[2]; FAC treatment,increase
same,glutathione peroxidase 4 (GPX4) protein expression,"[2]; all VS t(11;14) cell lines, 500 μM FAC for 72 h",consistent reduction
same,effect on growth/proliferation of VS cell lines,[3],specifically inhibit the proliferation; also recorded: growth suppressive effect
"C=CC1=C(C)c2cc3[n-]c(cc4[n-]c(cc5nc(cc1n2)C(C)=C5C=C)c(C)c4CCC(=O)O)c(CCC(=O)O)c3C.[Fe+2] [hemin, [7,12-diethenyl-3,8,13,17-tetramethyl-21H,23H-porphine-2,18-dipropanoato(2-)-N21,N22,N23,N24] iron]",reversal (rescue) of Ven sensitivity,[4],significantly reversed; also recorded: reverses
same,MEK-ERK-mTORC1 signaling,MEK-ERK-mTORC1 signaling,restores
same,reversal of venetoclax sensitivity,[5],reverses
